For 3 molecules, EC50, solubility and Solubility in buffer results are on record in patent US9637459B2, “Sodium and calcium salts of dihydroquinazoline derivative and use thereof as antiviral agents” (AiCuris GmbH & Co. KG, priority 2012, dated 2017).

Each structure is given as a SMILES string. In brackets after ≈: the same amount, converted by molar mass. Like-named read-outs stand apart in the source and are kept apart here. A value given as a limit tells only on which side of the number the result lay.

One series relates to HCMV AD169 RV-HG. The experiment in a line: HCMV fluorescence-reduction test (GFP-RA) in NHDF cells. The format is cell-based, human cytomegalovirus. As to conditions: read-out: EC50 (GFP-RA). The protocol: The in vitro effects of the compositions according to the present invention on the replication of the HCMV (human cytomegalovirus) can be seen in the following antiviral assay:
HCMV Fluorescence-Reduction Test.
The test compositions are used as a 50-millimolar (mM) solution in dimethyl sulphoxide (DMSO). Ganciclovir®, Foscarnet® or Cidofovir® can be used as reference compositions. One day before the beginning of the test, 1.5×10^4 human foreskin fibroblasts (NHDF cells)/well are seeded in 200 μl of cell culture medium in Wells B2-G11 of 96-well plates (black with transparent floor). The wells along the edges of each 96-well plate are filled with 200 μl of medium only in order to prevent edge effects. On the day of the test the cell culture medium in Wells B2-G11 of each 96-well plate is vacuumed off by a suction device and replaced with 100 μl of virus suspension (multiplicity of infection (MOI): 0.1-0.2). The virus used is a recombinant HCMV which has integrated an expression cassette for green fluorescence protein (GFP) in the virus genome (HCMV AD 169 RV-HG [E. M. Borst, K. Wagner, A. Binz, B. Sodeik, and M. Messerle, 2008, J. Virol. 82:2065-2078.]). After an incubation time of 2 h at 37° C. and 5% CO2, the virus inoculate is vacuumed off by a suction device and all wells, with the exception of the wells in Column 3, are filled with 200 μl of cell culture medium. Column 2 is not treated further and serves as a virus control. The wells in Column 3 are each filled with 300 μl of test substance (diluted in cell culture medium) for duplicate analysis. The concentration of the respective antiviral substance in Column 3 is ˜27 times as concentrated as the respective anticipated EC50 value. […] The GFP intensity of each well in a 96-well plate is then determined using a fluorescence scanner (FluoBox; Bayer Technology Services GmbH; filter settings: GFP, […], Em 520 nm). The measured values thus obtained can be used to determine the EC50 of an anti-HCMV: […]

Series [1] is described as follows: Solubility measurement of saturated solution in phosphate buffer (HPLC). The format is physicochemical. The method, then:
In order to determine the solubility, a saturated solution of the salt from Example 2 was prepared in phosphate buffer at pH 7.0 and shaken at room temperature for 2 hours. The suspensions obtained were filtered by means of a syringe filter (0.45 μm pore diameter) and after being diluted the clear solutions were measured by HPLC. Pure phosphate buffer was used as the blank sample. The solubility was calculated in terms of the absorption of a reference solution of the amorphous zwitterion in phosphate buffer.

The mark [2] stands for this setting: Human betaherpesvirus 5, AD169, NHDF, 168 h.

In the case of `Nc1nc(O)c2ncn(COC(CO)CO)c2n1` [Ganciclovir, reference compound], the EC50 in the series with HCMV AD169 RV-HG (setting [2]) was 2200 nM. For `COc1cccc(N2CCN(C3=Nc4c(F)cccc4[C@H](CC(=O)O)N3c3cc(C(F)(F)F)ccc3OC)CC2)c1` [Example 6A, (S)-{8-fluoro-2-[4-(3-methoxyphenyl)piperazine-1-yl]-3-(2-methoxy-5-trifluoromethyl-phenyl)-3,4-dihydroquinazoline-4-yl}acetic acid], the EC50 in the series with HCMV AD169 RV-HG (setting [2]) was found to be 3.4 nM. The molecule further registered a solubility at 2 h in series [1] (aqueous buffer, thermodynamic from solid, phosphate buffer pH 7.0, room temperature, shaken 2 hours, filtered 0.45 μm, HPLC) of 400 µg/mL (≈ 699 µM). In the case of `COc1cccc(N2CCN(C3=Nc4c(F)cccc4[C@H](CC(=O)[O-])N3c3cc(C(F)(F)F)ccc3OC)CC2)c1.O.O.O.[Na+]` [Example 2, 3-hydrate of the monosodium salt of (S)-{8-fluoro-2-[4-(3-methoxyphenyl)piperazine-1-yl]-3-[2-methoxy-5-(trifluoromethyl)phenyl]-3,4-dihydroquinazoline-4-yl}acetic acid], in the series with HCMV AD169 RV-HG (virus strain AD169 RV-HG, human foreskin fibroblasts (NHDF cells), 7 days incubation, 50% reduction of GFP fluorescence), the EC50 amounted to 3.9 nM. Also, the Solubility in buffer in series [1] (pH 7) is greater than 91700 µg/mL.

In general, EC50 refers to the concentration that produces a half-maximal response. Usually solubility stands for how much of the substance goes into solution per volume.
